The results in this text go back to patent US7795287B2, “Therapeutic substituted hydantoins and related compounds” (Allergan, Inc., priority 2006, dated 2010).

For data set [1], the target named is T1, EP2 (Homo sapiens, UniProt P43116). Put plainly: EP2 cAMP. Type of data set: cell-based. The source says:
(§1) U.S. patent application Ser. No. 11/553,143, filed on Oct. 26, 2006, incorporated by reference herein, describes the methods used to obtain the in vitro data in the table below.

The next data set addresses T2, hEP3A (Homo sapiens, UniProt P43115).
T2 sequence (P43115 1-390): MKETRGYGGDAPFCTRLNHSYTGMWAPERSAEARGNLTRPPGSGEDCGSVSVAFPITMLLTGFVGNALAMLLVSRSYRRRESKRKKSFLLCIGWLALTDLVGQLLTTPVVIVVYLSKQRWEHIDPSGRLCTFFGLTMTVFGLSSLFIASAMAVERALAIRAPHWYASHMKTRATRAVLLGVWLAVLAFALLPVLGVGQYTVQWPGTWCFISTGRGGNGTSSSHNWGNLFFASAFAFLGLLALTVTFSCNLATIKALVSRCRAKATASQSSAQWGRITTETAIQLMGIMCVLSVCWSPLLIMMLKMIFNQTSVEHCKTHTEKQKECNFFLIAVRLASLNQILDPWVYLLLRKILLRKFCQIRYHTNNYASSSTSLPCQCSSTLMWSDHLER
In words: Other Receptors, hEP3A. Type of data set: cell-based.
From the text: as §1

Data set [2] addresses T1, EP2. In words: EP2 flipr. Type of data set: cell-based.
From the text: as §1

The next data set deals with T3, hDP (Homo sapiens, UniProt Q13258).
T3 sequence (Q13258 1-359): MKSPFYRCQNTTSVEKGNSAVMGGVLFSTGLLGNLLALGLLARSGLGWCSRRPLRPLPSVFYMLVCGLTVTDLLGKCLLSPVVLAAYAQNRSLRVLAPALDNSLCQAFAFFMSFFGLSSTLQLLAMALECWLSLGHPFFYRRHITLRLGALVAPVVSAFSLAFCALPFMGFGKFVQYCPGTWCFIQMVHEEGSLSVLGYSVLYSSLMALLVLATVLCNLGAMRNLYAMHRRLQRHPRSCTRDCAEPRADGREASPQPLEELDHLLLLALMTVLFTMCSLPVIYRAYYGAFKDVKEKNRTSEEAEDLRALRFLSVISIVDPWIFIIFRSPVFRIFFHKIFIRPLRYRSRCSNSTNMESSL
Put plainly: Other Receptors, hDP. It counts as cell-based.
From the text: as §1

The next data set has as its target EP4 (Homo sapiens, UniProt P35408). Put plainly: EP4 binding (KI).
From the text: as §1

Data set [3] deals with T1, EP2. In words: EP2 binding (Ki).
From the text: as §1

The test system of the next data set is normotensive dogs. In words: Ocular surface hyperemia in normotensive dogs. Type of data set: in vivo. The following applies: 0.003%, once daily for 5 days, maximum at 26 h. The method, then:
U.S. Pat. No. 7,091,231 describes the methods used to carry out the tests reported below.
Isopropyl 5-(3-(3-(4-(1-hydroxyhexyl)phenyl)-2,5-dioxoimidazolidin-4-yl)propyl)thiophene-2-carboxylate (31) was tested in normotensive dogs at 0.003%, dosing once daily for 5 days. The maximum intraocular pressure (IOP) decrease from baseline was 7.7 mmHg (45%) at 102 h; the maximum ocular surface hyperemia (OSH) score was 2.5 at 26 h.

T1 sequence (P43116 whole entry): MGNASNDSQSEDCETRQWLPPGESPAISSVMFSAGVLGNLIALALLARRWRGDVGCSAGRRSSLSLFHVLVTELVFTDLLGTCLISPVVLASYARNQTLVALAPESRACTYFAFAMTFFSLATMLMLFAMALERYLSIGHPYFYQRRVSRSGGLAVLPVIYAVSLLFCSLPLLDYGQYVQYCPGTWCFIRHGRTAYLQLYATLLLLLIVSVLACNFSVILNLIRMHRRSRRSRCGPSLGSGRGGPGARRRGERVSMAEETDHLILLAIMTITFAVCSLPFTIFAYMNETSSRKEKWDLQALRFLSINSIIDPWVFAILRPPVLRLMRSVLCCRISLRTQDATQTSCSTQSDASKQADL
EP4, sequence (P35408 whole entry): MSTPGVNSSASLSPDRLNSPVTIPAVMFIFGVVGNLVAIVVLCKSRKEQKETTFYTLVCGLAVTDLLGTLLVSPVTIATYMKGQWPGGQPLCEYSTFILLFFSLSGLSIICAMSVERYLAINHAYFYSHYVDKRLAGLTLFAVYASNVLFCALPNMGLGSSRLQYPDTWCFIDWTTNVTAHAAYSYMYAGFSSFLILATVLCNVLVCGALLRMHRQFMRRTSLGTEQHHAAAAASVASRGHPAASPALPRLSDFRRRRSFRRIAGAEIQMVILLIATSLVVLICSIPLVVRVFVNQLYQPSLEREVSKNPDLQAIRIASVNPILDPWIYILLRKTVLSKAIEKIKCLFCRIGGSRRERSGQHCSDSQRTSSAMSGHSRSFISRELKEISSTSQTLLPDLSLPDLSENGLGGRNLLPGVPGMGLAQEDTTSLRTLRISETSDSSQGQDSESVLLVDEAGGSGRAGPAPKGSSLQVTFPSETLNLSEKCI

In general, EC50 refers to the concentration at which the effect is half-maximal. A higher EC50 goes with a less potent agent. Compound `CCCCCC(=O)c1ccc(N2C(=O)NC(=O)C2CCCc2ccc(C(=O)O)s2)cc1` (centres unmarked) returned an EC50 on EP2 [1] of 0.2 nM.

As usually defined, the Ki is the equilibrium dissociation constant of an inhibitor or competing ligand from its target. A lower Ki goes with tighter binding. As to `CCCCCC(O)c1ccc(N2C(=O)NC(=O)C2CCCc2ccc(C(=O)O)s2)cc1` (centres unmarked), the EC50 at hEP3A amounted to 10 nM; at EP2 [2] it was 3.5 nM; at EP2 [1], 0.1 nM; on hDP it was 17400 nM. For the same compound, the Ki at EP4 is > 10 µM; on EP2 [3], 5 nM.

For `CCCCCC(O)c1ccc(N2C(=O)NC(=O)C2CCCc2ccc(C(=O)OC(C)C)s2)cc1` (centres unmarked) [Compound 31, Isopropyl 5-(3-(3-(4-(1-hydroxyhexyl)phenyl)-2,5-dioxoimidazolidin-4-yl)propyl)thiophene-2-carboxylate], the “maximum ocular surface hyperemia (OSH) score” value in the data set on normotensive dogs was 2.5.
